Laboratory results taken from patent US8815857B2 (Boehringer Ingelheim International GmbH, priority 2011, dated 2014).
In brackets after ≈: the same amount, converted by molar mass.

Key:
[1] = biological target: T1, Recombinant human soluble guanylate cyclase (sGC), alpha 1 / beta 1 subunits, heme-free (Homo sapiens, UniProt Q02108+Q02153); test: Molecular assay: cGMP formation by heme-free recombinant sGC (CisBio cGMP detection kit); type: biochemical; conditions: 300 pM heme-free sGC, 37° C., 60 min, cGMP readout; read-out: EC50 nM, Activity of Compounds in Molecular Assay
T1 construct: histidine tag (C); made in house; host or cells: Sf9 insect cells (baculovirus coinfection)
T1 sequence (Q02108 1-690 partner): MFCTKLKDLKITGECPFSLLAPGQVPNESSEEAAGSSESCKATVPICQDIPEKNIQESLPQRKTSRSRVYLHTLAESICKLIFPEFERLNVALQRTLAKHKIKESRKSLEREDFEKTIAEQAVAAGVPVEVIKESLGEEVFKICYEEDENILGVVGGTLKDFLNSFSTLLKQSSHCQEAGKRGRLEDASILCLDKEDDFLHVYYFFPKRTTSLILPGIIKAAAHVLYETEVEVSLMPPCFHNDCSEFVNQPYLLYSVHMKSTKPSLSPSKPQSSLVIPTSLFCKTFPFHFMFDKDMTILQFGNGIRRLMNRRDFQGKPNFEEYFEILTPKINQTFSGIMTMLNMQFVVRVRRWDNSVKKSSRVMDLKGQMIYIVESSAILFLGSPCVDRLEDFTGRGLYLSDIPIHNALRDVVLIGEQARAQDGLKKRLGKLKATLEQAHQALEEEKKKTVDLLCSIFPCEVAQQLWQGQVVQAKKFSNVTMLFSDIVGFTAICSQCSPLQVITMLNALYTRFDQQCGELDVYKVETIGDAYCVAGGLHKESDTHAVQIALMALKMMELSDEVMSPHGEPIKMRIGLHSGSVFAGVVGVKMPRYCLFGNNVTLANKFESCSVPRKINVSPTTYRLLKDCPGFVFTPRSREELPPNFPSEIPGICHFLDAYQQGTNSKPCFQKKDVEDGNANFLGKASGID
T1 sequence (Q02153 1-619): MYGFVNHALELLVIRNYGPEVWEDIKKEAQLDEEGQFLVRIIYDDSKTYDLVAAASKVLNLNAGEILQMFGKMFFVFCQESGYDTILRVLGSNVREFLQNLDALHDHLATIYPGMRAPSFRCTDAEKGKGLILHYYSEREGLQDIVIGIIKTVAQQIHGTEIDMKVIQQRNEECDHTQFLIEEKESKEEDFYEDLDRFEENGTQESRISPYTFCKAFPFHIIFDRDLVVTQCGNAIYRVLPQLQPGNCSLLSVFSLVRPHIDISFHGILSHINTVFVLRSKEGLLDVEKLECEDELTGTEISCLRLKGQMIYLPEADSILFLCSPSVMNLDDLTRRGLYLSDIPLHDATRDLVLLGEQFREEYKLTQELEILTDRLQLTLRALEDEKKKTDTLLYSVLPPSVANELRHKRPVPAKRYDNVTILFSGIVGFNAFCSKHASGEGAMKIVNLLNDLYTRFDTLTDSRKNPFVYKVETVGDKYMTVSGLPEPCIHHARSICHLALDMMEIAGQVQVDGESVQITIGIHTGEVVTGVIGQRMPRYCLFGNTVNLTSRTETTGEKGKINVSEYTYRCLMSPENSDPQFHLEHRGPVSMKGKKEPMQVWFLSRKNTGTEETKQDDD
Outline: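 cGMP generated over 60 min at 37° C (pH 6.8 MOPS buffer, 50 nM GTP, 1.25 mM IBMX, 1% DMSO) by 300 pM heme-free sGC, expressed in Sf9 and heme-stripped with 0.5% Tween 20. HTRF ratios converted to nM cGMP; EC50 fitted from log concentration.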

[2] = biological target: T2, human soluble guanylate cyclase alpha 1 and beta 1 subunits (sGC) stably expressed in Chinese hamster ovary cells (Homo sapiens, UniProt Q02108+Q02153); test: sGC cellular activator assay: cGMP in CHO cells expressing human sGC, preincubated with ODQ; type: cell-based; conditions: 40 microM ODQ preincubation, 30 min at room temperature, presence or absence of 50% human serum not given, read-out: EC50 nM, Activity of Compounds in Cellular Assay
T2 construct: expressed in transfected cells; host or cells: Chinese hamster ovary cells, stably transfected
T2 sequence (Q02108 1-690 partner): T1 sequence (Q02108 1-690 partner)
T2 sequence (Q02153 1-619): T1 sequence (Q02153 1-619)
Outline: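 EC50 values derive from HTRF cGMP measurement after test compounds act for thirty minutes at room temperature, with or without 50% human serum. Before dosing, the sGC-transfected CHO cells spend one hour with the inhibitor ODQ (40 microM) in IBMX- and 0.1% BSA-containing buffer.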

[3] = Assessment of solubility: HT solubility in pION buffer, UV spectrophotometry; conditions: for solubility: kinetic from dmso stock
[4] = pION system solution buffer, pH 4.5, pH 4.5, aqueous buffer, Solubility (pH 4.5), pH 4.5 buffer, 16-19 h incubation, 1.0% DMSO
[5] = pION system solution buffer, pH 7.4, pH 7.4, aqueous buffer, Solubility (pH 7.4), pH 7.4 buffer, 16-19 h incubation, 1.0% DMSO
[6] = pH 6.8, aqueous buffer, Solubility (pH 6.8), pH 6.8

| SMILES | EC50 [1] | EC50 [2] | solubility [3, 4] | solubility [3, 5] | solubility [3, 6] | Solubility (pH 4.5) ([3]; pH 4.5 buffer, 16-19 h incubation, 1.0% DMSO) |
| --- | --- | --- | --- | --- | --- | --- |
| Cc1cc(CN2CCS(=O)(=O)CC2)ccc1COc1c(C)cccc1-c1csc(N2C[C@H]3CC[C@@H](C2)[C@H]3C(=O)O)n1 [Compound 203] | 23 nM | 68 nM | 3 µg/mL (≈ 5.04 µM) | > 59 µg/mL | – | – |
| Cc1cc(CN2CCS(=O)(=O)CC2)ccc1COc1c(C)cccc1-c1csc(N2C3CCC2CC(C(=O)O)C3)n1 (stereo not shown) [Compound 205] | 80 nM | 200 nM | 9.5 µg/mL (≈ 15.9 µM) | > 59 µg/mL | – | – |
| Cc1cc(CN2CCOCC2)ccc1COc1c(C)cccc1-c1csc(N2C[C@H]3CC[C@@H](C2)[C@H]3C(=O)O)n1 [Compound 206] | 170 nM | 88 nM | > 58 µg/mL | > 58 µg/mL | – | – |
| Cc1cc(CN2CCS(=O)(=O)CC2)ccc1COc1ccc(Cl)cc1-c1csc(N2C3CCC2CC(C(=O)O)C3)n1 (stereo not shown) [Compound 207] | 170 nM | 93 nM | 0.95 µg/mL (≈ 1.54 µM) | 30 µg/mL (≈ 48.7 µM) | – | – |
| Cc1cc(C(=O)N2CCCCC2)ccc1COc1c(C)cccc1-c1csc(N2C[C@H]3CC[C@@H](C2)[C@H]3C(=O)O)n1 [Compound 208] | 250 nM | 39 nM | 0.3 µg/mL (≈ 0.536 µM) | > 55 µg/mL | – | – |
| Cc1cc(C(=O)N2CCCCC2)ccc1COc1c(C)cccc1-c1csc(N2C3CCC2CC(C(=O)O)C3)n1 (stereo not shown) [Compound 209] | 270 nM | 96 nM | 5.1 µg/mL (≈ 9.11 µM) | > 55 µg/mL | – | – |
| Cc1cc(CN2CCOCC2)ccc1COc1c(C)cccc1-c1csc(N2C3CCC2CC(C(=O)O)C3)n1 (stereo not shown) [Compound 210] | 350 nM | 430 nM | > 58 µg/mL | > 58 µg/mL | – | – |
| Cc1cc(CN2CCS(=O)(=O)CC2)ccc1COc1ccc(Cl)cc1-c1csc(N2CC3CCC(C2)C3C(=O)O)n1 (stereo not shown) [Compound 211] | 370 nM | 190 nM | 1.4 µg/mL (≈ 2.27 µM) | 17 µg/mL (≈ 27.6 µM) | – | – |
| Cc1ccc(OCc2ccc(C(=O)N(C)Cc3ccn(C)n3)cc2C)c(-c2csc(N3C[C@H]4CC[C@@H](C3)[C@H]4C(=O)O)n2)c1 [Compound 343] | – | 46 nM | < 0.1 µg/mL | – | 52 µg/mL (≈ 86.7 µM) | – |
| Cc1ccc(OCc2ccc(C(=O)N(C)CC(=O)N(C)C)cc2C)c(-c2csc(N3C[C@H]4CC[C@@H](C3)[C@H]4C(=O)O)n2)c1 [Compound 345] | – | 130 nM | 4 µg/mL (≈ 6.77 µM) | > 58 µg/mL | 66 µg/mL (≈ 112 µM) | – |
| Cc1ccc(OCc2ccc(C(=O)N(C)CC(C)(C)CO)cc2C)c(-c2csc(N3C[C@H]4CC[C@@H](C3)[C@H]4C(=O)O)n2)c1 [Compound 346] | – | 67 nM | 0.46 µg/mL (≈ 0.777 µM) | > 54 µg/mL | 36 µg/mL (≈ 60.8 µM) | – |
| CNC(=O)CN(C)C(=O)c1ccc(COc2ccc(C)cc2-c2csc(N3C[C@H]4CC[C@@H](C3)[C@H]4C(=O)O)n2)c(C)c1 [Compound 347] | – | 260 nM | 5.8 µg/mL (≈ 10.1 µM) | > 53 µg/mL | 70 µg/mL (≈ 121 µM) | – |
| Cc1ccc(OCc2ccc(C(=O)N(C)CCC(C)(C)O)cc2C)c(-c2csc(N3C[C@H]4CC[C@@H](C3)[C@H]4C(=O)O)n2)c1 [Compound 348] | – | 41 nM | 0.27 µg/mL (≈ 0.456 µM) | 37 µg/mL (≈ 62.5 µM) | 71 µg/mL (≈ 120 µM) | – |
| Cc1ccc(OCc2ccc(C(=O)N3CCN(C)C(=O)C3)cc2C)c(-c2csc(N3CCC(C(=O)O)CC3)n2)c1 [Compound 349] | – | 40 nM | 6.5 µg/mL (≈ 11.6 µM) | – | 69 µg/mL (≈ 123 µM) | – |
| Cc1ccc(OCc2ccc(CN3CCOC(C)(C)C3)cc2C#N)c(-c2csc(N3C[C@H]4CC[C@@H](C3)[C@H]4C(=O)O)n2)c1 [Compound 358] | – | 30 nM | 0.14 µg/mL (≈ 0.239 µM) | – | 8.1 µg/mL (≈ 13.8 µM) | – |
| Cc1ccc(OCc2ccc(CN3CCOCC3C)cc2C#N)c(-c2csc(N3C[C@H]4CC[C@@H](C3)[C@H]4C(=O)O)n2)c1 (stereo partly shown) [Compound 359] | – | 36 nM | 12 µg/mL (≈ 21 µM) | – | 5.8 µg/mL (≈ 10.1 µM) | – |

These reach a lower EC50 [2]. Values come first.

| EC50 [1] | EC50 [2] | solubility [3, 4] | solubility [3, 5] | solubility [3, 6] | Solubility (pH 4.5) ([3]; pH 4.5 buffer, 16-19 h incubation, 1.0% DMSO) | SMILES |
| --- | --- | --- | --- | --- | --- | --- |
| 28 nM | 17 nM | 0.35 µg/mL (≈ 0.6 µM) | 54 µg/mL (≈ 92.5 µM) | – | – | Cc1ccc(OCc2ccc(CN3CCS(=O)(=O)CC3)cc2C)c(-c2csc(N3CCC(C(=O)O)C(C)C3)n2)c1 (stereo not shown) [Compound 204] |
| 22 nM | 15 nM | < 0.1 µg/mL | 21 µg/mL (≈ 36.6 µM) | 51 µg/mL (≈ 88.9 µM) | – | Cc1ccc(OCc2ccc(C(=O)N3CCCCC3)cc2C)c(-c2csc(N3C[C@H]4CC[C@@H](C3)[C@@]4(C)C(=O)O)n2)c1 [Compound 214] |
| 49 nM | 8.7 nM | 0.95 µg/mL (≈ 1.63 µM) | 34 µg/mL (≈ 58.4 µM) | – | – | Cc1ccc(OCc2ccc(CN3CCS(=O)(=O)CC3)cc2C)c(-c2csc(N3CCC4(C(=O)O)CC4C3)n2)c1 (stereo not shown) [Compound 217] |
| 170 nM | 18 nM | > 64 µg/mL | 39 µg/mL (≈ 73.1 µM) | – | – | Cc1ccc(OCc2ccc(CN3CCOCC3)cc2C)c(-c2csc(N3CCC4(C(=O)O)CC4C3)n2)c1 (stereo not shown) [Compound 218] |
| – | 23 nM | – | > 58 µg/mL | 61 µg/mL (≈ 108 µM) | 0.1 μg/mL | COCCN(C)C(=O)c1ccc(COc2ccc(C)cc2-c2csc(N3C[C@H]4CC[C@@H](C3)[C@H]4C(=O)O)n2)c(C)c1 [Compound 344] |
| – | 10 nM | 0.21 µg/mL (≈ 0.344 µM) | – | 1.3 µg/mL (≈ 2.13 µM) | – | Cc1ccc(OCc2ccc(CN(C)[C@@H]3CCS(=O)(=O)C3)cc2C)c(-c2csc(N3C[C@H]4CC[C@@H](C3)[C@H]4C(=O)O)n2)c1 [Compound 351] |
| – | 3.8 nM | 0.42 µg/mL (≈ 0.717 µM) | – | 57 µg/mL (≈ 97.3 µM) | – | Cc1ccc(OCc2ccc(CN3CCN(C)C(=O)C3)cc2C#N)c(-c2csc(N3C[C@H]4CC[C@@H](C3)[C@H]4C(=O)O)n2)c1 [Compound 354] |
| – | 9.2 nM | 0.77 µg/mL (≈ 1.32 µM) | – | 7 µg/mL (≈ 12 µM) | – | Cc1ccc(OCc2ccc(CN3CCOC(C#N)C3)cc2C#N)c(-c2csc(N3C[C@H]4CC[C@@H](C3)[C@H]4C(=O)O)n2)c1 (stereo partly shown) [Compound 355] |
| – | 24 nM | 2.7 µg/mL (≈ 4.6 µM) | – | 1.6 µg/mL (≈ 2.73 µM) | – | Cc1ccc(OCc2ccc(CN3C[C@@H](C)O[C@@H](C)C3)cc2C#N)c(-c2csc(N3C[C@H]4CC[C@@H](C3)[C@H]4C(=O)O)n2)c1 [Compound 356] |
| – | 24 nM | 2.3 µg/mL (≈ 4.02 µM) | – | 11 µg/mL (≈ 19.2 µM) | – | Cc1ccc(OCc2ccc(CN3CCO[C@H](C)C3)cc2C#N)c(-c2csc(N3C[C@H]4CC[C@@H](C3)[C@H]4C(=O)O)n2)c1 [Compound 357] |
| – | 21 nM | – | – | 33 µg/mL (≈ 58.1 µM) | – | Cc1ccc(OCc2ccc(C(=O)N3CC(F)(F)C3)cc2C)c(-c2csc(N3C[C@H]4CC[C@@H](C3)[C@H]4C(=O)O)n2)c1 [Compound 360] |
| – | 17 nM | – | – | 34 µg/mL (≈ 63.9 µM) | – | Cc1ccc(OCc2ccc(C(=O)N3CCC3)cc2C)c(-c2csc(N3C[C@H]4CC[C@@H](C3)[C@H]4C(=O)O)n2)c1 [Compound 361, 3-(4-{2-[4-(azetidine-1-carbonyl)-2-methyl-benzyloxy]-5-methyl-phenyl}-thiazol-2-yl)-3-aza-bicyclo[3.2.1]octane-8(syn)-carboxylic acid] |
